The values that follow come from patent US20110065896A1, “POLYETHER POLYOL DENDRON CONJUGATES WITH EFFECTOR MOLECULES FOR BIOLOGICAL TARGETING” (MIVENION GMBH, priority 2008, published 2011).

Data set [1] in a line: Fluorescence quantum yield of dendron dye in comparison to precursor dye. It counts as physicochemical. The source says:
Fluorescence quantum yield of title compound of example 4a in comparison to precursor dye dendron bis-1,1′-(4-sulfobutyl)indotricarbocyanine-5,5′-dicarboxylic acid, sodium salt

A short description of data set [2]: Investigation of solubilities in PBS by observation of precipitates. The data set is classed as physicochemical. The settings on record: conjugate solutions in PBS obtained in examples 10b and 10c, on storage. As to the method: Conjugation with IgG antibody: To a solution of 1 mg antibody (IgG from bovine serum; Sigma, >95%, salt free, powder) in […] of phosphate-buffered saline (PBS, pH 7.4) is given […] (32 μL) of a solution of 0.5 mg of N-hydroxysuccinimidyl ester of example 9 in 0.1 mL water. The mixture is shaken at 25° C. for 24 h in the dark. Purification is achieved by filtration via a NAP10 column (Pharmacia) using PBS as eluent. As control conjugate, pyropheophorbide a —NHS-ester is used for conjugation with IgG giving IgG-pyropheo conjugate.
Conjugation with bovine serum albumine (BSA): To a solution of 1 mg BSA (Sigma, fraction V, >98%, powder) in […] of phosphate-buffered saline (PBS, pH 7.4) is given […] (70 μL) of a solution of 0.5 mg of N-hydroxysuccinimidyl ester of example 9 in 0.1 mL water. The mixture is shaken at 25° C. for 24 h in the dark. Purification is achieved by filtration via a NAP 10 column (Pharmacia) using PBS as eluent.
Investigation of solubilities in PBS by observation of precipitates from the solutions obtained in examples 10b and 10c: […]

Take `CC1(C)C(=CC=CC=CC=CC2=[N+](CCCCS(=O)(=O)[O-])c3ccc(C(=O)O)cc3C2(C)C)N(CCCCS(=O)(=O)[O-])c2ccc(C(=O)O)cc21.[Na+]` [Precursor dye, bis-1,1′-(4-sulfobutyl)indotricarbocyanine-5,5′-dicarboxylic acid, sodium salt]: the Fluorescence quantum yield is 0.14 in data set [1] (MeOH) and 0.07 in data set [1] (PBS).

Turning to “BSA-pyropheo: control conjugate: pyropheophorbide a NHS-ester conjugated with BSA”, in data set [2], the “Solubility in PBS by observation of precipitates” value was “immediate precipates”.
